Experimental findings from patent publication US20220105096A1, “INHIBITORS OF HUMAN IMMUNODEFICIENCY VIRUS REPLICATION” (ViiV HEALTHCARE UK (NO.5) LIMITED, priority 2019, published 2022) are described below.

The term EC50 denotes the concentration at which the effect is half-maximal.

SMILES strings stand for the structures.

For one data set, the system named is recombinant NL4-3 virus. As to the kind of experiment: Antiviral potency in MT-2 cells infected with recombinant NL4-3 Renilla luciferase virus. To be noted: Human immunodeficiency virus 1, NL43, MT2. It is filed as cell-based, HIV. How it is done: MT-2 cells, 293T cells and the proviral DNA clone of NL4-3 virus were obtained from the NIH AIDS Research and Reference Reagent Program. MT-2 cells were propagated in RPMI 1640 media supplemented with 10% heat inactivated fetal bovine serum (FBS), […]. The 293T cells were propagated in DMEM media supplemented with 10% heat inactivated FBS, […] penicillin G and […] streptomycin. A recombinant NL4-3 proviral clone, in which a section of the nef gene was replaced with the Renilla luciferase gene, was used to make the reference virus used in these studies. The recombinant virus was prepared through transfection of the recombinant NL4-3 proviral clone into 293T cells using Transit-293 Transfection Reagent from Mirus Bio LLC (Madison, Wis.). Supernatant was harvested after 2-3 days and the amount of virus present was titered in MT-2 cells using luciferase enzyme activity as a marker by measuring luciferase enzyme activity. Luciferase was quantitated using the EnduRen Live Cell Substrate from Promega (Madison, Wis.). Antiviral activities of compounds toward the recombinant virus were quantified by measuring luciferase activity in MT-2 cells infected for 4-5 days with the recombinant virus in the presence of serial dilutions of the compound. […]

Data set [1] is described as follows: Metabolism in human liver microsomes. It is filed as in vitro ADME. To be noted: pH 7.4, 1 μM compound, 1 mg/mL microsomes, NADPH, 37° C., read-out: Human liver microsome T1/2. As to the method:
(§1) Liver microsomes from human, rat dog and monkey were thawed and diluted to a final concentration of 1 mg/mL in 100 mM potassium phosphate buffer (pH 7.4). Test compounds and controls were prepared at 100× final concentration of 1 μM in 1:1 acetonitrile:water (v/v) and aliquoted into microsomal mixture. The mixture was preincubated at 37° C. in a shaking water bath for 10 minutes. The incubations were performed in duplicate. Three controls were included in the incubations; warfarin, phenacetin, and verapamil. After the preincubation, the reaction was initiated with NADPH at a final concentration of 1 mM. At 0, 5, 15, 30, 45 and 60 minutes, 25 μL of sample was removed and quenched with 300 μL of acetonitrile containing internal standard (Telmisartan). The samples were vortexed for 5 minutes at 1200 rpm and then centrifuged at 4000 rpm for 10 min. A 100 μL aliquot of supernatant was diluted three-fold with water and injected on an Exion LC 4500 Triple Quad LC-MS/MS system. Results were reported as a percentage of parent remaining and was calculated from peak area ratios of test compound remaining after at each time point and compared to time zero incubation.
A general note: Liver microsomes are vesicles of endoplasmic reticulum, rich in cytochrome P450 enzymes.

Data set [2] in a line: Metabolism in rat liver microsomes. In kind it is in vitro ADME. To be noted: pH 7.4, 1 μM compound, 1 mg/mL microsomes, NADPH, 37° C., read-out: Rat liver microsome T1/2. How it is done:
as §1

Data set [3] has as its system primary human hepatocytes. As to the kind of experiment: Cytotoxicity assessed in parallel in the CYP induction assay. It is filed as cell-based. To be noted: concentrations tested up to 30 μM, 48 hours. As to the method:
Compounds were tested in a CYP induction assay using inducible cryopreserved human primary hepatocytes from three donors to determine the potential to cause induction (as measured by an increase in mRNA transcription) of CYP2B6. Test compounds (0.12 to 30 μM final concentration) were incubated for 48 hours with primary human hepatocytes naturally expressing all nuclear receptors involved in regulation of expression levels of various CYP enzymes. Fresh solutions of test compounds and controls were diluted in assay media and added every 24 hours for two consecutive days, with a final DMSO concentration of 0.1%. At the end of the incubation, the integrity of cell monolayers, cell density and viability were evaluated to assess cytotoxicity effects. […] It was then used in reverse transcription polymerase chain reactions (RT-PCR) to quantify the amount of specific mRNA species encoding human CYP3A4, CYP2B6, and CYP1A2 genes.
The induction potential of test compounds and controls was compared to known CYP2B6 inducer Phenobarbital (1000 μM). The results of this assay are expressed as fold induction. Fold induction was calculated as a ratio of mRNA level in cells treated with test compound over that in cells treated with DMSO (solvent control) alone, the basal mRNA level, and thus represents the induction potential of the test compound. […]

In the case of `Cn1nc(NS(C)(=O)=O)c2c(Cl)ccc(-n3c([C@H](Cc4cc(F)cc(F)c4)NC(=O)Cn4nc(C(F)F)c5c4C(F)(F)[C@@H]4C[C@H]54)nc4nc(OCCC(C)(F)F)ccc4c3=O)c21` (atropisomer, axis not shown; (P)) [Example 1, N—((S)-1-((3P)-3-(4-chloro-1-methyl-3-(methylsulfonamido)-1H-indazol-7-yl)-7-(3,3-difluorobutoxy)-4-oxo-3,4-dihydropyrido[2,3-d]pyrimidin-2-yl)-2-(3,5-difluorophenyl)ethyl)-2-((3bS,4aR)-3-(difluoromethyl)-5,5-difluoro-3b,4,4a,5-tetrahydro-1H-cyclopropa[3,4]cyclopenta[1,2-c]pyrazol-1-yl)acetamide], the EC50 in the data set on recombinant NL4-3 virus is 0.019 ± 0.006 nM. For the same compound, the half-life at 1 μM in data set [1] and in data set [2] was > 2 h each time. For the same compound, the “cytotoxicity in CYP induction assay” value in data set [3] is given as “No cytotoxicity was observed”.
